Assay results as given in US5229123A, “Antifungal agents” (Hoffmann-La Roche Inc., priority 1991, dated 1993).
pIC50: −log10 of the molar value. Like-named read-outs stand apart in the source and are kept apart here.

Legend:
Chs 1 = target: T1, Chs 1 (Saccharomyces cerevisiae, UniProt P08004); assay: Inhibitory activity against Chs 1 (chitin formation from [14C]-UDP-N-acetylglucosamine in permeabilized overproducer cells); assay type: biochemical
T1 sequence (P08004 1-1131): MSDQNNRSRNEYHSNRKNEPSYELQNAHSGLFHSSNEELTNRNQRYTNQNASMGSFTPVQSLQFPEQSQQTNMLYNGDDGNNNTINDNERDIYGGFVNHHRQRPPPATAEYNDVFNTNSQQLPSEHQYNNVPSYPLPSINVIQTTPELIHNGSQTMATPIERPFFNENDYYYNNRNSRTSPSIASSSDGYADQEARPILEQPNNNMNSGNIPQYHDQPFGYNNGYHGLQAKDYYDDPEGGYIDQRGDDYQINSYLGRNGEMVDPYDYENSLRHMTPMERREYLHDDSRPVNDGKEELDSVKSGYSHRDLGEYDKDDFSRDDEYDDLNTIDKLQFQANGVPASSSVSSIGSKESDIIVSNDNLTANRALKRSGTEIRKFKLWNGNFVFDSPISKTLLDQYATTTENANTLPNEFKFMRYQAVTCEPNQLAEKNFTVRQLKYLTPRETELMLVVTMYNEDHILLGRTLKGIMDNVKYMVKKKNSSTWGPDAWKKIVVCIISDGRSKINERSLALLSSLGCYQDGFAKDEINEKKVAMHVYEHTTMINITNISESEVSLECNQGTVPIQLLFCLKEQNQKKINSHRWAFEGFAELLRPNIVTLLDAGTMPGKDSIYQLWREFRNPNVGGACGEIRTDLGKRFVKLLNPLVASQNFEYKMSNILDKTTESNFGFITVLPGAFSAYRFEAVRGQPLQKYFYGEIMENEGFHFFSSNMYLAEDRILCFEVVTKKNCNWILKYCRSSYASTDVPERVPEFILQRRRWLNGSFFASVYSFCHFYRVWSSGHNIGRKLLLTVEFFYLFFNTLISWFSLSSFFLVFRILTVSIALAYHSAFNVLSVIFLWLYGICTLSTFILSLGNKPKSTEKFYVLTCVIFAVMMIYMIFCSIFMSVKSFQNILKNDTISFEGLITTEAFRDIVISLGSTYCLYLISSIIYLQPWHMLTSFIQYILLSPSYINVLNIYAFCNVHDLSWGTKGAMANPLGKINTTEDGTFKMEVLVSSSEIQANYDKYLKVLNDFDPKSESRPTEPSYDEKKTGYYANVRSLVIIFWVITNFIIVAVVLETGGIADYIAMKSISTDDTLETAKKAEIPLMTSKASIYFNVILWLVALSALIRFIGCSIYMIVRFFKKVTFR
Experimental: (§1) Inhibitory activity of Xanthofulvin against Chs 1 and Chs 2 from Saccharomyces cerevisiae was measured respectively.
(§2) The overproducer employed for Chs 1 was Saccharomyces cerevisiae (ura3) harbouring plasmid (CHSl, URA3). The cells were permeabilized with 0.5% digitonin for 15 min at 30° C., followed by treatment with trypsin at the final concentration of 100 μg/ml for 15 min at 30° C. After addition of trypsin inhibitor from soybean, 50 μl of 2.5×10^7 cells/ml was incubated for 1 hr at 30° C. with 40 μl of assay solution containing 50 mM MES pH 6.5, 5 mM Mg(OAc)2, 32 mM N-acetylglucosamine and 0.1 mM [^14 C]-UDP-N-acetylglucosamine, and 10 μl of sample solution. Reaction was terminated with addition of TCA and cells are collected on the filter and washed with 70% aqueous ethanol containing 0.3M acetic acid. Radioactivity of cells is counted with a liquid scientillation counter. Amount of chitin formed was determined on the basis of radioactivity incorporated into the cells (S. J. Silverman, A. Sburlati, M. J. Slater and E. Cabib. Proc. Natl. Acad. Sci. USA, 85, 4735-4739 (1988)).

Acute toxicity = conditions: in vivo
[1] = Solubility (physico-chemical properties); assay type: physicochemical
Excerpt: The physico-chemical properties of Xanthofulvin obtained as described in the Example given hereinbelow are as follows: […]

Chs 2 = target: T2, Chs 2 (Saccharomyces cerevisiae, UniProt P14180); assay: Inhibitory activity against Chs 2 (chitin formation from [14C]-UDP-N-acetylglucosamine in permeabilized overproducer cells); assay type: biochemical
T2 construct: digitonin-permeabilized, trypsin-treated cells
Experimental: as §1, §2
Overproducer for Chs 2 was a Saccharomyces cerevisiae strain of disrupted Chs 1 gene (chs1:: URA3, leu2 ) with plasmid (CHS2, LEU2). Assay method was the same as the one for Chs 1 described above except for assay solution. Assay solution for Chs 2 contained 30 mM Tris (pH 7.5), 2.5 mM Co(OAc)2, 32 mM N-acetylglucosamine and 0.1 mM [^14 C]-UDP-N-acetylglucosamine (See: Silverman et al. supra).

[2] = target: chitin synthase 1 (Chs 1) (Saccharomyces cerevisiae, UniProt P08004); conditions: literature, E. Cabib 1991; cited from earlier work

T2 sequence (P14180 whole entry): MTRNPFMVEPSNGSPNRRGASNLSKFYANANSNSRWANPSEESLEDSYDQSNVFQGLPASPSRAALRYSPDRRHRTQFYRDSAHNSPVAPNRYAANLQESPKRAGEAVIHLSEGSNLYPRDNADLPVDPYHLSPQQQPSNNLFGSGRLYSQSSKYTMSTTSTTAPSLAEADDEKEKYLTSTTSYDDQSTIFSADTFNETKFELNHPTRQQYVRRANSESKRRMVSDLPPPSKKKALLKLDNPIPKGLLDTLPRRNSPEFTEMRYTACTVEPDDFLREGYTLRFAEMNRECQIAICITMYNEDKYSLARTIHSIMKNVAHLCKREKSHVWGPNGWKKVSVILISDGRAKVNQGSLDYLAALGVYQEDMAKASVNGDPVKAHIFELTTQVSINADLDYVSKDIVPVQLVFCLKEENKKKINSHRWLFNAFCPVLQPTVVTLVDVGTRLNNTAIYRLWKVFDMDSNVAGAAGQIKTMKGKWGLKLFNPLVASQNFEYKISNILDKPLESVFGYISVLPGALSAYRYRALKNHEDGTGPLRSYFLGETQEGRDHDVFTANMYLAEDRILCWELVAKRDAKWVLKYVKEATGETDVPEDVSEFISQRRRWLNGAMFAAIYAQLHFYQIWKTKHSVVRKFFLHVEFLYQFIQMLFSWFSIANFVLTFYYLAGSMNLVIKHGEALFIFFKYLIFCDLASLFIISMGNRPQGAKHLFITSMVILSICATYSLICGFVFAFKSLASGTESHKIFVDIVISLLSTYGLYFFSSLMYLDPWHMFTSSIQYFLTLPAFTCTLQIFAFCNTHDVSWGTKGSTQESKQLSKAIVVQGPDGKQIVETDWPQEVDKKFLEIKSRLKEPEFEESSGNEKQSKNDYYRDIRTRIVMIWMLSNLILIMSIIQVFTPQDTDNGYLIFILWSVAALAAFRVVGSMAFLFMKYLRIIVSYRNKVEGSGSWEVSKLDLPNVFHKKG

SMILES | pIC50 (Chs 1; Chs 1 overproducer, MES pH 6.5, Mg(OAc)2, 1 hr at 30° C., read-out: IC50 Chs 1) | Acute toxicity (Acute toxicity) | Solubility ([1]; in DMSO) | Solubility ([1]; in H2O) | Solubility ([1]; in MeOH) | Solubility ([1]; in n-hexane) | pIC50 (Chs 2; Chs 2 overproducer, Tris pH 7.5, Co(OAc)2, read-out: IC50 Chs 2) | Chs 2 inhibiting activity (in words) (Chs 2; summary of Table 1) | pIC50 (Chs 1) | Inhibition of chitin synthase 1 versus Chs 2 (in words) [2] | pIC50 (Chs 2)
CC(=O)c1c(C)c(/C(O)=C2\COc3cc(O)c(O)c(C(=O)O)c3C2=O)cc2c(=O)c3c(C(=O)O)c(O)c(O)cc3oc12 [Xanthofulvin] | < 3.70 | not observed | Soluble | Slightly soluble | Soluble | Insoluble | 5.66 | high Chs 2 inhibiting activity | – | – | –
NC(=O)OC[C@H](O)[C@@H](O)[C@H](N)C(=O)N[C@H](C(=O)O)[C@H]1O[C@@H](n2cc(C(=O)O)c(=O)[nH]c2=O)[C@H](O)[C@@H]1O [polyoxin D, reference compound] | – | – | – | – | – | – | – | – | 6.59 | inhibit chitin synthase 1 (Chs 1) rather than Chs 2 | 4.99
C[C@@H]([C@H](N)C(=O)N[C@H](C(=O)O)[C@H]1OC(n2cc(C=O)nc2O)[C@H](O)[C@@H]1O)[C@H](O)c1ccc(O)cn1 (stereo partly drawn) [nikkomycin X] | – | – | – | – | – | – | – | – | – | inhibit chitin synthase 1 (Chs 1) rather than Chs 2 | –
